Experimental data reported in ChEMBL document CHEMBL1158221, “Nigranoic acid, a triterpenoid from Schisandra sphaerandra that inhibits HIV-1 reverse transcriptase” (J Nat Prod, 1996).

Tests used:
[1] = system: Human immunodeficiency virus 1; assay: Inhibition of HIV1 reverse transcriptase mutant at 200 ug/ml
[2] = system: Human immunodeficiency virus 2; assay: Inhibition of HIV2 reverse transcriptase at 200 ug/ml
[3] = Inhibition of AMV reverse transcriptase; parameters: species or system Avian myeloblastosis virus
[4] = Inhibition of RNaseH at 200 ug/ml
[5] = Inhibition of DNA polymerase alpha at 200 ug/ml
[6] = target: Human immunodeficiency virus type 1 reverse transcriptase (Human immunodeficiency virus 1, UniProt Q72547); assay: Inhibition of HIV1 reverse transcriptase
[7] = target: Human immunodeficiency virus type 1 reverse transcriptase (Human immunodeficiency virus 1) (UniProt Q72547); assay: Inhibition of HIV1 reverse transcriptase at 200 ug/ml
[8] = Inhibition of RNA polymerase
[9] = Inhibition of HIV1 reverse transcriptase mutant; parameters: species or system Human immunodeficiency virus 1
[10] = Inhibition of DNA polymerase alpha
[11] = Inhibition of DNA polymerase beta
[12] = Inhibition of RNA polymerase at 200 ug/ml
[13] = Inhibition of HIV2 reverse transcriptase; parameters: species or system Human immunodeficiency virus 2
[14] = system: Avian myeloblastosis virus; assay: Inhibition of AMV reverse transcriptase at 200 ug/ml
[15] = Inhibition of DNA dependent DNA polymerase
[16] = Inhibition of DNA dependent DNA polymerase at 200 ug/ml
[17] = Inhibition of RNaseH
[18] = Inhibition of DNA polymerase beta at 200 ug/ml

`C=C(C)[C@@H]1CC[C@@H]2[C@]3(CC[C@]4(C)[C@@H]([C@H](C)CC/C=C(/C)C(=O)O)CC[C@@]24C)C[C@]13CCC(=O)O` [NIGRANOIC ACID] gave an inhibition [1] of 71%, an inhibition [2] of 76.7% and an IC50 [3] of 242 µM. It also gave an inhibition [4] of 6.8%, an inhibition [5] of 46.2% and an IC50 [6] of 159 µM. The inhibition [7] was 99.4%, the IC50 [8] was 188 µM and the IC50 [9] was 388 µM. For the same compound, the IC50 [10] was greater than 425 µM, the IC50 [11] was 16.6 µM and the inhibition [12] was 75.4%. For the same compound, the IC50 [13] was 356 µM, the inhibition [14] was 99.2% and the IC50 [15] was 40.6 µM. For the same compound, the inhibition [16] was 96.7%, the IC50 [17] was greater than 425 µM and the inhibition [18] was 99.1%.
